From patent US8354443B2, “Cyclopropane indolinone derivatives” (Hoffmann-La Roche Inc., priority 2009, dated 2013)

Tested on: recombinant AMPK proteins (α1β1γ1, α2β1γ1, α1(1-335), α1(1-394) or α2(1-394))
Experiment: Scintillation Proximity Assay (AMPK activation)
Type: biochemical, human
Settings: effective concentration of activator for 50% of maximal enzyme activity; 2 hr at 30° C.; AMPK form not specified
Method in brief: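 Pre-phosphorylated recombinant human AMPK (α1β1γ1, α2β1γ1, α1(1-335), α1(1-394) or α2(1-394)), 50 nM, incubated 2 hr at 30° C with 2 μM biotin-SAMS, 2 μM ATP plus [γ-33P]ATP, pH 7.5, and varying activator. Product detected by streptavidin SPA beads; EC50 is activator concentration giving 50% of maximal enzyme activity.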

Molecule	EC50 [nM]
O=C(Nc1cc(C2CC2)n[nH]1)c1cccc(CN2C(=O)[C@]3(C[C@@H]3c3ccc(Cl)cc3)c3ccccc32)c1 (racemic) [Example 116, (1S,2R) and (1R,2S)-3-((2-(4-chlorophenyl)-2′-oxospiro[cyclopropane-1,3′-indoline]-1′-yl)methyl)-N-(3-cyclopropyl-1H-pyrazol-5-yl)benzamide]	4330
O=C(Nc1cc(C2CC2)[nH]n1)c1cccc(CN2C(=O)[C@]3(C[C@@H]3c3ccc(Cl)cc3)c3ccccc32)c1 (racemic) [Example 117, (1S,2R) and (1R,2S)-3-((2-(4-chlorophenyl)-2′-oxospiro[cyclopropane-1,3′-indoline]-1′-yl)methyl)-N-(5-cyclopropyl-1H-pyrazol-3-yl)benzamide]	990
O=C1N(CC2CCNCC2)c2ccccc2[C@@]12C[C@@H]2c1ccc(Cl)cc1 (racemic) [Example 124, (1S,2R) and (1R,2S)-2-(4-chlorophenyl)-1′-(piperidin-4-ylmethyl) Spiro[cyclopropane-1,3′-indolin]-2′-one]	5400
O=C1N(CCN2CCCCC2)c2ccccc2[C@@]12C[C@@H]2c1ccc(Cl)cc1 (racemic) [Example 125, (1S,2R) and (1R,2S)-2-(4-chlorophenyl)-1′-(2-(piperidin-1-yl)ethyl)spiro[cyclopropane-1,3′-indolin]-2′-one]	1750
O=C1N(CCNCCCN2CCOCC2)c2ccccc2[C@@]12C[C@@H]2c1ccc(Cl)cc1 (racemic) [Example 127, (1S,2R) and (1R,2S)-2-(4-chlorophenyl)-1′-(2-(3-morpholinopropylamino)ethyl) spiro[cyclopropane-1,3′-indolin]-2′-one]	4500
O=C1N(CCNCCN2CCOCC2)c2ccccc2[C@@]12C[C@@H]2c1ccc(Cl)cc1 (racemic) [Example 128, (1S,2R) and (1R,2S)-2-(4-chlorophenyl)-1′-(2-(2-morpholinoethylamino)ethyl) spiro[cyclopropane-1,3′-indolin]-2′-one]	2040
O=C1N(CCN2CCN(c3ccncc3)CC2)c2ccccc2[C@@]12C[C@@H]2c1ccc(Cl)cc1 (racemic) [Example 129, (1S,2R) and (1R,2S)-2-(4-chlorophenyl)-1′-(2-(4-(pyridin-4-yl)piperazin-1-yl)ethyl) spiro[cyclopropane-1,3′-indolin]-2′-one]	1680
O=C1N(c2c[nH]cn2)c2ccccc2[C@@]12C[C@@H]2c1ccc(Cl)cc1 (racemic) [Example 131, (1S,2R) and (1R,2S)-2-(4-chlorophenyl)-1′-(1H-imidazol-4-yl)spiro[cyclopropane-1,3′-indolin]-2′-one]	3270
CS(=O)(=O)NC(=O)c1cccc(N2C(=O)[C@]3(C[C@@H]3c3ccc(Cl)cc3)c3ccccc32)c1 (racemic) [Example 132, (1S,2R) and (1R,2S)-3-(2-(4-chlorophenyl)-2′-oxospiro[cyclopropane-1,3′-indoline]-1′-yl)-N-(methylsulfonyl)benzamide]	1550
CN1CCCC1CCNC(=O)c1cccc(CN2C(=O)[C@]3(C[C@@H]3c3ccc(Cl)cc3)c3ccccc32)c1 (stereo partly drawn) [Example 66, 3-(((1S,2R)-2-(4-chlorophenyl)-2′-oxospiro[cyclopropane-1,3′-indoline]-1′-yl)methyl)-N-(2-((S)-1-methylpyrrolidin-2-yl)ethyl)benzamide and 3-(((1R,2S)-2-(4-chlorophenyl)-2′-oxospiro[cyclopropane-1,3′-indoline]-1′-yl)methyl)-N-(2-((5)-1-methylpyrrolidin-2-yl)ethyl)benzamide]	1070
(1R,2R) and (1S,2S)-((2-(4-(methylsulfonyl)phenyl)-2′-oxospiro[cyclopropane-1,3′-indoline]-1′-yl)methyl)benzoic acid [Example 4]	2200
